Measured values: ChEMBL document CHEMBL1201862, “PubChem BioAssay data set” (2004)
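Cultured in 96-well plates, cells were exposed to test compound for 48 hours across five concentrations. GI50 marks 50% less growth.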 The source made the active and inactive calls. Rule as the data show it: active = GI50 up to about 1.1 µM and inactive = higher.

Assays:
Test in all cases: NCI anticancer screen, dose series, 48 h
Malme-3M = system: Malme-3M
MDA-MB-231 = system: MDA-MB-231
786-0 = system: 786-0
HOP-92 = system: HOP-92
PC-3 = system: PC-3
SF-539 = system: SF-539
NCI-H226 = system: NCI-H226
MDA-MB-435 = system: MDA-MB-435
T47D = system: T47D
MCF7 = system: MCF7
MDA-N = system: MDA-N
DU-145 = system: DU-145
SR = system: SR
LOX IMVI = system: LOX IMVI
RPMI-8226 = system: RPMI-8226
BT-549 = system: BT-549
A498 = system: A498
NCI/ADR-RES = system: NCI/ADR-RES
HCC 2998 = system: HCC 2998

| SMILES | GI50 (Malme-3M) | GI50 (MDA-MB-231) | GI50 (786-0) | GI50 (HOP-92) | GI50 (PC-3) | GI50 (SF-539) | GI50 (NCI-H226) | GI50 (MDA-MB-435) | GI50 (T47D) | GI50 (MCF7) | GI50 (MDA-N) | GI50 (DU-145) | GI50 (SR) | GI50 (LOX IMVI) | GI50 (RPMI-8226) | GI50 (BT-549) | GI50 (A498) | GI50 (NCI/ADR-RES) | GI50 (HCC 2998) |
| --- | --- | --- | --- | --- | --- | --- | --- | --- | --- | --- | --- | --- | --- | --- | --- | --- | --- | --- | --- |
| COc1ccc2c(Cc3c4ccccc4cc4ccccc34)cncc2c1O | 5.86 µM (inactive) | 2.51 µM (inactive) | 4.21 µM (inactive) | 1.81 µM (inactive) | 5.14 µM (inactive) | 0.245 µM (active) | 3.27 µM (inactive) | 0.239 µM (active) | 17.2 µM (inactive) | 0.638 µM (active) | 0.404 µM (active) | 2.77 µM (inactive) | 0.21 µM (active) | 0.394 µM (active) | 1.85 µM (inactive) | 5.69 µM (inactive) | 3.99 µM (inactive) | 0.67 µM (active) |  |
| Oc1cccc(-c2nc3ccccc3s2)c1 | 2.99 µM (inactive) | 22.1 µM (inactive) | 71.6 µM (inactive) | 25.5 µM (inactive) | 23.2 µM (inactive) | 28.7 µM (inactive) | 10.8 µM (inactive) | 30.7 µM (inactive) | 10.2 µM (inactive) | 16.4 µM (inactive) | 27.8 µM (inactive) | 38.7 µM (inactive) | 29.2 µM (inactive) | 26.5 µM (inactive) | 39.4 µM (inactive) | 33 µM (inactive) | 52.5 µM (inactive) | 21.9 µM (inactive) |  |
| NN=C(S)Nc1cccc(Cl)c1 | > 100 µM (inactive) | > 100 µM (inactive) | > 100 µM (inactive) |  | 48.2 µM (inactive) | > 100 µM (inactive) |  | 83.6 µM (inactive) | 74.8 µM (inactive) | > 100 µM (inactive) | > 100 µM (inactive) | > 100 µM (inactive) |  | > 100 µM (inactive) | > 100 µM (inactive) | > 100 µM (inactive) | > 100 µM (inactive) | 53.5 µM (inactive) | 64.7 µM (inactive) |
| CCNC(=S)N/N=C/c1ccccn1 | 5.78 µM (inactive) | 7.05 µM (inactive) | 5.81 µM (inactive) |  | 6.95 µM (inactive) | 6.7 µM (inactive) | 3.83 µM (inactive) | 16.3 µM (inactive) | 1.98 µM (inactive) | 3.27 µM (inactive) | 27.7 µM (inactive) | 7.13 µM (inactive) | > 100 µM (inactive) | 7.18 µM (inactive) |  | 20.9 µM (inactive) | 5.09 µM (inactive) | 6.95 µM (inactive) |  |
| N=C(N)NCC(N)C(=O)O (stereo not given) | > 100 µM (inactive) | > 100 µM (inactive) | > 100 µM (inactive) | > 100 µM (inactive) | > 100 µM (inactive) | > 100 µM (inactive) | > 100 µM (inactive) | > 100 µM (inactive) | > 100 µM (inactive) | > 100 µM (inactive) | > 100 µM (inactive) | > 100 µM (inactive) | > 100 µM (inactive) | > 100 µM (inactive) | > 100 µM (inactive) | > 100 µM (inactive) | > 100 µM (inactive) | > 100 µM (inactive) |  |
| COc1ccc(CC2COc3cc(O)cc(O)c3C2=O)cc1O (stereo not given) | 4.21 µM (inactive) | 6.49 µM (inactive) | 9.75 µM (inactive) | 22.3 µM (inactive) | 7.08 µM (inactive) | 2.97 µM (inactive) |  | 1.32 µM (inactive) | 3.99 µM (inactive) | 6.21 µM (inactive) | 1.47 µM (inactive) | 9.48 µM (inactive) | 1.03 µM (active) | 8.83 µM (inactive) | 3.01 µM (inactive) | 82.2 µM (inactive) | 99.3 µM (inactive) | 2.64 µM (inactive) |  |
| CC(C)CNc1nc2ncnc(N)c2[nH]1 | > 100 µM (inactive) | > 100 µM (inactive) | > 100 µM (inactive) | 56.8 µM (inactive) | > 100 µM (inactive) | > 100 µM (inactive) | > 100 µM (inactive) | > 100 µM (inactive) | > 100 µM (inactive) | > 100 µM (inactive) | > 100 µM (inactive) | > 100 µM (inactive) |  | > 100 µM (inactive) | > 100 µM (inactive) | > 100 µM (inactive) | > 100 µM (inactive) | > 100 µM (inactive) | > 100 µM (inactive) |
| Cn1c(=O)c2[nH]c(/N=N/N3CCN(CCO)CC3)nc2n(C)c1=O | > 100 µM (inactive) | > 100 µM (inactive) | > 100 µM (inactive) | > 100 µM (inactive) | > 100 µM (inactive) | > 100 µM (inactive) | > 100 µM (inactive) | > 100 µM (inactive) | > 100 µM (inactive) | > 100 µM (inactive) | > 100 µM (inactive) | > 100 µM (inactive) | > 100 µM (inactive) | > 100 µM (inactive) | > 100 µM (inactive) | 18.8 µM (inactive) | > 100 µM (inactive) | 67 µM (inactive) |  |
| CC(C)N(C(=O)C1(O)c2ccccc2C=Cc2ccccc21)C(C)C | 17.6 µM (inactive) | 15.7 µM (inactive) | 20.6 µM (inactive) |  | 15.5 µM (inactive) | 18.7 µM (inactive) | 19.3 µM (inactive) | 30.1 µM (inactive) | 16.6 µM (inactive) | 17.3 µM (inactive) | 19.3 µM (inactive) | 17.9 µM (inactive) | 23.3 µM (inactive) |  | 35.9 µM (inactive) | 18.8 µM (inactive) | 16.3 µM (inactive) | 18.2 µM (inactive) |  |
| COc1ccc(Nc2nc(N)c(C(=O)c3c[nH]c4ccccc34)s2)cc1 | 3.44 µM (inactive) | 9.91 µM (inactive) | 2.15 µM (inactive) | 5.36 µM (inactive) | 2.15 µM (inactive) | 2.42 µM (inactive) | 11.1 µM (inactive) | 0.161 µM (active) | 3.6 µM (inactive) | 1.03 µM (active) | 0.31 µM (active) | 2.2 µM (inactive) | 0.0655 µM (active) | 2.01 µM (inactive) | 0.998 µM (active) | 2.43 µM (inactive) | 2.05 µM (inactive) | 1 µM (active) |  |
| O=C1Oc2ccccc2C(=O)/C1=C\NC(=S)c1ccncc1 |  | > 100 µM (inactive) | > 100 µM (inactive) | > 100 µM (inactive) | 94.4 µM (inactive) | > 100 µM (inactive) | > 100 µM (inactive) | 98.4 µM (inactive) | > 100 µM (inactive) | > 100 µM (inactive) | > 100 µM (inactive) | > 100 µM (inactive) |  | > 100 µM (inactive) |  | 31.6 µM (inactive) |  | > 100 µM (inactive) | > 100 µM (inactive) |
| CC1(C)[C@H](C(=O)O)N2C(=O)[C@@H](NS(=O)(=O)c3ccc([N+](=O)[O-])cc3)[C@H]2S1(=O)=O | > 100 µM (inactive) | > 100 µM (inactive) | > 100 µM (inactive) | > 100 µM (inactive) | > 100 µM (inactive) | > 100 µM (inactive) | > 100 µM (inactive) | > 100 µM (inactive) | > 100 µM (inactive) | > 100 µM (inactive) | > 100 µM (inactive) | > 100 µM (inactive) |  | > 100 µM (inactive) |  | > 100 µM (inactive) | > 100 µM (inactive) | > 100 µM (inactive) | > 100 µM (inactive) |
